# Measurements from US20240173369A1 (priority 2021, published 2024).
# Legend:
# [1] = test system: Pseudomonas aeruginosa strains 883, 762, PAO1; assay: Synergism with antibiotic in liquid infection (OD600 growth curves); assay type: cell-based
# Method: To test the efficacy of the phage and antibiotics in liquid culture, bacterial host cells were grown overnight in TSB at 37° C. with shaking at 180 rpm to OD600>1.5. In addition, each phage was diluted to a concentration of 5×10^7 PFU/ml in TSB and used individually or combined equally with other phages into a cocktail. Then, 1 mM ions were added, and 200 μL was dispensed per well in a 96-well plate to a final concentration of […]. For no phage control (NPC), TSB containing 1 mM ions was used. Antibiotics was added to the relevant wells (aztreonam 4 μg/mL, colistin 2 μg/mL for “883,” 4 μg/mL for “762” and 6 μg/mL for PAO1). Then, 2 μL of the bacterial culture was added to the wells (dilution of 1:100). TSB containing 1 mM ions was used as NPC. Two repeats were done for each treatment, and TSB media served as a blank. 50 μL of mineral oil added were added to each well to reduce evaporation of the samples, and the plate was covered with a sterile film to allow for bacterial growth and keep the culture sterile. Plates were incubated for approximately 30 hours in a plate reader at 37° C. with shaking, and OD600 was measured every 20 minutes. Two biological repeats were performed for the assay.
# [2] = test system: P. aeruginosa; assay: Minimal inhibitory concentration; assay type: cell-based; settings: Pseudomonas aeruginosa
# [3] = test system: P. aeruginosa embedded in pre-formed biofilm; assay: Viability of P. aeruginosa embedded in pre-formed biofilm (BacTiter-Glo); assay type: cell-based, Pseudomonas aeruginosa; settings: 24 h biofilm, 6 hours treatment; RLU converted to cCFU
# Method: To test the effect of phage on biofilm, starters of the relevant bacteria were grown overnight. Three isolated single colonies of the relevant strains were picked into 3 mL TSB and shook overnight at 37° C., 180 rpm, to an OD600>1, one starter used for each of two biological repeats. The next day, the starters were dispersed in 96 wells plate and the biofilm was left to form for 24 hours: cultures were diluted 1:100 in 3 mL fresh TSB (Tryptic Soy Broth) medium and OD600 was adjusted to ˜0.05 (˜4×10^7 CFU/mL). 200 μL of the diluted inoculums were added per well in a 96 well culture plate (Biofil, cat #TCP-011-096) according to the plate layout. 200 μL TSB was used for blank wells. […] After the incubation period, the supernatant was carefully removed (media, waste, phages/antibiotics, and planktonic cells) the biofilm was washed again with 200 μL PBS (Phosphate-buffered saline, Hylabs, cat #BP655) and its biomass measured (staining with crystal violet (CV) and/or viable cells (plating for CFU enumeration).
# For host cells viability assessment, the BacTiter-Glo (Promega, cat #G8231) method was used. The method measures viable bacterial cells based on quantification of the ATP present in the viable cells. The readout is a luminescent signal (in relative light units (RLU)) in an ATP-dependent reaction. […]
compound,measurement,setting,value
"NC[C@H]1O[C@H](O[C@H]2[C@H](O)[C@@H](O[C@H]3O[C@H](CO)[C@@H](O)[C@H](N)[C@H]3O)[C@H](N)C[C@@H]2N)[C@H](N)C[C@@H]1O [Tobramycin, tobramycin]",time growth was suppressed,"[1]; PsA strains, single treatment alone",approximately 25 hours
"C[C@@H](O)[C@H]1C(=O)N2C(C(=O)O)=C(SCCN=CN)C[C@H]12 [antibiotic, imipenem]",MIC,[2],4 µg/mL
same,reduction of bacterial burden of embedded PsA,[3],~1 logs
C[C@H]1[C@H](NC(=O)/C(=N\OC(C)(C)C(=O)O)c2csc(N)n2)C(=O)N1S(=O)(=O)O [aztreonam],effect on bacterial growth / appearance of bacteria mutants,"[1]; PsA strains (e.g., PAO1, 883)",slower bacterial growth throughout the observed period
